These results are taken from patent publication US20220087983A1, “ACTIVATING PYRUVATE KINASE R” (FORMA Therapeutics, Inc., priority 2020, published 2022).

≈ marks a conversion by molar mass, not a printed value.

For series [1], the target named is PKR(G332S) (Homo sapiens, UniProt P30613, G332S). Briefly: Luminescence Assay (Kinase Glo Plus) of PKR activation. Format: biochemical. The conditions noted are these: G332S variant; Luminescence Assay of Example 2. Here is the method: (§1) PKR Activating Compounds can be identified with the biochemical Luminescence Assay of Example 2. The PKR activating activity of a series of chemical compounds was evaluated using the Luminescence Assay below, including compounds designated Compound 1, and Compound 2, or mixtures thereof.
PKR(G332S), sequence (P30613 whole entry G332S): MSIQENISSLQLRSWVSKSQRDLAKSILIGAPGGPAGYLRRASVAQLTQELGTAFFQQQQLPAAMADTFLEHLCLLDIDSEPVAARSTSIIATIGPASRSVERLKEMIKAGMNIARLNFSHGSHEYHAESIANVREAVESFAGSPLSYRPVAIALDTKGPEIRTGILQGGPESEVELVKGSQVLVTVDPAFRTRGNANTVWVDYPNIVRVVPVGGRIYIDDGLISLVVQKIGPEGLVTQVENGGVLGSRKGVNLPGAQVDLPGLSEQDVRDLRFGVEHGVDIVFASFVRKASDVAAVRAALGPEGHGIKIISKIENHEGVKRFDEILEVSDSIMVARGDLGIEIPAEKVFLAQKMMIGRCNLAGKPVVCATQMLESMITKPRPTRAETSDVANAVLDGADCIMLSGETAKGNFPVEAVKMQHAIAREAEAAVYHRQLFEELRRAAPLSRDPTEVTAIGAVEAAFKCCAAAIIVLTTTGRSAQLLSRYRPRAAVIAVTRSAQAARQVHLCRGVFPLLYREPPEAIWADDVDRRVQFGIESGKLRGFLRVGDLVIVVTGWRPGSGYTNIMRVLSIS
(§2) For each tested compound, the ability to activate PKR was determined using the following Luminescence Assay. The effect of phosphorylation of adenosine-5′-diphosphate (ADP) by PKR is determined by the Kinase Glo Plus Assay (Promega) in the presence or absence of FBP (D-fructose-1,6-diphosphate; BOC Sciences, CAS: 81028-91-3) as follows. Unless otherwise indicated, all reagents are purchased from Sigma-Aldrich. All reagents are prepared in buffer containing 50 mM Tris-HCl, 100 mM KCl, 5 mM MgCl2, and 0.01% Triton X100, 0.03% BSA, and 1 mM DTT. Enzyme and PEP (phosphoenolpyruvate) are added at 2× to all wells of an assay-ready plate containing serial dilutions of test compounds or DMSO vehicle. Final enzyme concentrations for PKR(wt), PKR(R510Q), and PKR(G332S) are 0.8 nM, 0.8 nM, and 10 nM respectively. Final PEP concentration is 100 μM. The Enzyme/PEP mixture is incubated with compounds for 30 minutes at RT before the assay is initiated with the addition of 2×ADP and KinaseGloPlus. Final concentration of ADP is 100 μM. […] For assays containing FBP, that reagent is added at 30 μM upon reaction initiation. Reactions are allowed to progress for 45 minutes at RT until luminescence is recorded by the BMG PHERAstar FS Multilabel Reader. The compound is tested in triplicate at concentrations ranging from 42.5 μM to 2.2 nM in 0.83% DMSO. AC50 measurements were obtained by the standard four parameter fit algorithm of ActivityBase XE Runner (max, min, slope and AC50). The AC50 value for a compound is the concentration (μM) at which the activity along the four parameter logistic curve fit is halfway between minimum and maximum activity.
(§3) As set forth in Table 2 below, AC50 values are defined as follows: ≤0.1 μM (+++); >0.1 μM and ≤1.0 μM (++); >1.0 μM and ≤40 μM (+); >40 μM (0).
In general terms: In Kinase-Glo more light means more ATP remaining.

The target of series [2] is PKR(R510Q) (Homo sapiens, UniProt P30613, R510Q). The description is as above. Format: biochemical. To be noted: R510Q variant; Luminescence Assay of Example 2. Here is the method:
as §1, §2, §3

In series [3] the target is PKR(wt) (Homo sapiens, UniProt P30613). The description is as above. To be noted: wild type; Luminescence Assay of Example 2. The format is biochemical. How it is done:
as §1, §2, §3

The target in series [4] is wt-PKR (Homo sapiens, UniProt P30613). Briefly: Enzyme assay of PKR kinetics and activation (Example 3). The format is biochemical. The conditions noted are these: PEP at or below Km. Here is the method:
The ability of Compound 1 to activate PKR in enzyme-based assays was measured.
Tests were conducted in the presence and absence of fructose-1,6-bisphosphate (FBP), a known allosteric activator of PKR.

Series [5] can be described thus: Phase 1: plasma pharmacokinetics in SCD patients. Format: in vivo. To be noted: human, oral, SCD (N = 5), single dose 700 mg. From the text:
This is a first-in-human (FIH), Phase 1 study of Compound 1 that will characterize the safety, PK, and PD of Compound 1 after a single dose and after repeated dosing first in healthy adult volunteers and then in adolescents or adults with sickle cell disease. Initially, a dose range of Compound 1 in single ascending dose (SAD) escalation cohorts will be explored in healthy subjects. Enrollment of healthy subjects into 2-week multiple ascending dose (MAD) escalation cohorts will be initiated once the safety and PK from at least two SAD cohorts is available to inform the doses for the 2-week MAD portion of the study. The MAD cohorts will then run in parallel to the single dose cohorts. A single dose cohort is planned to understand food effects (FE) on the PK of Compound 1. […] Multiple dose studies in SCD subjects will then be initiated upon completion of MAD studies in healthy volunteers. Compound 1 will be administered in 25 mg and 100 mg tablets delivered orally, prepared as described in Example 1, Step 7.
In this study, SAD/MAD cohorts are randomized (3 to 1) to receive Compound 1 or placebo (P). Compound 1 was evaluated first in 4 healthy SAD cohorts and 4 healthy MAD (14-day dosing period) cohorts. Based on the safety, and PK/PD profile from HS, Compound 1 is then evaluated in 1 SCD SAD cohort and 2 SCD MAD cohorts. Specifically, based on the safety and pharmacokinetic/pharmacodynamics (PK/PD) profile in healthy volunteer studies, Compound 1 is evaluated in patients (pts) with SCD, first in a single dose (SD or SAD) cohort and then in multiple-dose (MD or MAD) cohorts (14-day and 12-week). Safety assessments include AEs, vital signs, ECGs and laboratory parameters. PK/PD blood sampling was performed on Day 1 (SAD/MAD) and Day 14 (MAD) and up to 72 h after the last dose and at the end-of-study visit. PD parameters included 2,3-DPG, ATP, and p50 in all cohorts with additional PD studies (including oxygen scan) performed only in the SCD cohorts. PD parameters included 2,3-DPG, ATP, p50, RBC deformability with controlled deoxygenation and reoxygenation (Lorrca® oxygen scan) and varying osmolality (Lorrca® osmoscan)). To maintain study blind, pt identifiers were removed when needed.
A potential exposure to the maximum PD response dose range to evaluate in patients with SCD was identified. Based on the safety and PK/PD profile in healthy volunteer studies, a 700 mg single dose was evaluated in patients with SCD (n=7). A single 700 mg dose of Compound 1 was selected to evaluate in patients with SCD to enable daily dosing cohorts at lower exposures.
In the SCD single dose cohort, seven patients received either Compound 1 (n=5) or placebo (n=2).

The subject of series [6] is H295R adreno-cortical carcinoma cell line. Briefly: Steroid modulation screen in vitro. Format: cell-based. The conditions noted are these: tested 200 to 0.0002 μM; only at the top concentration. How it is done:
To assess potential effects on steroidogenesis, Compound 1 was screened for steroid modulation in vitro using the H295R adreno-cortical carcinoma cell line (at 200 to 0.0002 μM) and in an assay to monitor cell viability (MTT Kit). Compound 1 indicated steroid modulation potential (% over vehicle) only at 200 μM, the top concentration tested, with 100% cellular viability at concentrations≤20 μM (90% viability at 200 μM).

Series [7] concerns the target T1, CYP2C19 (Homo sapiens, UniProt P33261).
T1 construct: from tissue; host or cells: human liver microsomes
As to the kind of experiment: Single substrate DDI assay, reversible CYP inhibition in human liver microsomes. The format is in vitro ADME.

Series [8] is described as follows: Solubility in water or buffered solutions. Format: physicochemical. The conditions noted are these: aqueous buffer, pH about 1.07 to about 8.69.
Series [9] in a line: Preclinical safety: arrhythmia risk, mutagenicity, panels of receptors, enzymes, ion channels and kinases in vitro.

T1 sequence (P33261 whole entry): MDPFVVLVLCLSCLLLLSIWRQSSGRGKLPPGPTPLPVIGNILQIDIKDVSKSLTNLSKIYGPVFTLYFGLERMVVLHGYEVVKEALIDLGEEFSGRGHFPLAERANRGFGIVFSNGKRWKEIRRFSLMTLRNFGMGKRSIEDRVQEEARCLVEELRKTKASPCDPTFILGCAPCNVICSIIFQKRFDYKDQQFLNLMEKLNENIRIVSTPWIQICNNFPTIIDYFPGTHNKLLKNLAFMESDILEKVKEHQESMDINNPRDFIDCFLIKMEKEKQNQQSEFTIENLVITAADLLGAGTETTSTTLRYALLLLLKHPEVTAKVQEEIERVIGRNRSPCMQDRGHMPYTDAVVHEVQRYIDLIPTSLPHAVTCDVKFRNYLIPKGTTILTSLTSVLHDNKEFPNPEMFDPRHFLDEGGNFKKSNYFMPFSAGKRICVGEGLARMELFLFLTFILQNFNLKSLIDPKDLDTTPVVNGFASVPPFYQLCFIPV
wt-PKR, sequence (P30613 whole entry): as the sequence (P30613 whole entry G332S) above, with S332G counted along it
PKR(wt), sequence (P30613 whole entry): as the sequence (P30613 whole entry G332S) above, with S332G counted along it
PKR(R510Q), sequence (P30613 whole entry R510Q): as the sequence (P30613 whole entry G332S) above, with S332G, R510Q counted along it

As to `O=C([C@H](CO)c1ccccc1)N1CC2=C(C1)CN(S(=O)(=O)c1cnc3c(c1)OCCO3)C2` (single isomer, unassigned) [Compound 1], the AC50 was less than 1000 nM in series [1], less than 1000 nM in series [2], less than 1000 nM in [3] and less than 100 nM in series [4]. Besides, the AUC(0-inf) in series [5] (geometric mean (geometric CV)) is 7300 ng·h/mL. Also, the Cmax in [5] (geometric mean (geometric CV)) amounted to 2580 ng/mL. This compound also gave a half-life in series [5] (geometric mean (geometric CV)) of 14.9 h. Besides, in [5] (median [min, max]), the Tmax came to 2 h. Moreover, the “concentration at which steroid modulation potential (% over vehicle) was indicated” value in series [6] came to 200 µM. The same compound returned an IC50 in [7] of more than 30000 nM. Moreover, in series [8], the solubility was in the range of 22 to 25 µg/mL (≈ 48.1 to 54.6 µM). The “preclinical evidence of arrhythmia risk, mutagenicity, or nonspecific binding activity” value in [9] was “has not demonstrated any preclinical evidence of arrhythmia risk, mutagenicity, or nonspecific binding activity”.

In general, AC50 refers to the concentration at which the activity in the assay is half-maximal. What is called AUC(0-inf) is total exposure, with the tail of the curve extrapolated. Low readings indicate less exposure, high ones more exposure. For orientation: Cmax means the highest concentration seen after dosing. The half-life is how long it takes for the measured level to halve. What is called Tmax is the time from dosing to the highest level. In general, IC50 refers to the concentration that inhibits the measured activity by half. Higher therefore signals weaker potency in that assay. In general, solubility refers to the dissolved amount per volume that the medium holds. Low readings indicate little dissolved substance, high ones much dissolved substance.
